Test results taken from ChEMBL document CHEMBL1146503, “Effects of natural flavones and flavonols on the kinase activity of Cdk5” (J Nat Prod, 2004).

Target: Cyclin-dependent kinase 5 (Rattus norvegicus, UniProt Q03114)
Test: Inhibition of rat fetal brain CDK5 assessed as phosphorylated histone H1 levels by immuno-precipitation
Type: tissue-based

Chain of Cyclin-dependent kinase 5 (Q03114 whole entry): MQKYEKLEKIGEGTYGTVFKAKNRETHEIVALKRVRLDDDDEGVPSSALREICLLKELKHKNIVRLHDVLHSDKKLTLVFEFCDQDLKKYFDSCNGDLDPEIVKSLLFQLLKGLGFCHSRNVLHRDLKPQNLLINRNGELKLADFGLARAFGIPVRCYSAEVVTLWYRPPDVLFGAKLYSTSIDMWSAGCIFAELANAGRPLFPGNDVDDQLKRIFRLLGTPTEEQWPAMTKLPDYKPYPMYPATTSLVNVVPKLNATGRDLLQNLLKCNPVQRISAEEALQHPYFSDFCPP

SMILES	EC50 [µM]
COc1cc2oc(-c3ccccc3)cc(=O)c2c(OC)c1O	> 250
COc1cc(-c2oc3c(OC)c(OC)c(OC)c(O)c3c(=O)c2OC)ccc1O	> 25
O=c1cc(-c2ccc(O)cc2)oc2cc(O)cc(O)c12 [APIGENIN]	> 250
COc1c(O)cc2oc(-c3ccc(O)c(O)c3)cc(=O)c2c1O [EUPAFOLIN]	40
COc1c(O)cc2oc(-c3ccc(O)cc3)cc(=O)c2c1O [HISPIDULIN]	19.1
O=c1c(O)c(-c2ccc(O)cc2)oc2cc(O)cc(O)c12 [KAEMPFEROL]	66.1
O=c1cc(-c2ccc(O)c(O)c2)oc2cc(O)cc(O)c12 [LUTEOLIN]	> 250
O=c1c(O)c(-c2cc(O)c(O)c(O)c2)oc2cc(O)cc(O)c12 [MYRICETIN]	71.1
